This passage reports IC50 results from ChEMBL document CHEMBL5729039, “Macrocyclic fluorine substituted indole derivatives” (2022).

Molecules are shown by their SMILES.

In assay [1] the target is Apoptosis regulator Bcl-2 (Homo sapiens, UniProt P10415). Nature of the assay: (§1) Biological Assay 2: BCL-2 Assay: In the assay 11 different concentrations of each compound (0.1 nM, 0.33 nM, 1.1 nM, 3.8 nM, 13 nM, 44 nM, 0.15 μM, 0.51 μM, 1.7 μM, 5.9 μM and 20 μM) were typically measured as duplicates in the same microtiter plate. For that, 100-fold concentrated DMSO solutions were prepared by serial dilutions (1:3.4) of a 2 mM stock solution in a clear, 384-well microtiter plate (Greiner Bio-One, Frickenhausen, Germany). From there, 50 nl were transferred in a dark test plate (Greiner Bio-One, Frickenhausen, Germany). The assay was initiated by addition of 2 μl of a 2,5-fold concentrated His-BCL-2 solution (usually for a 1 nM end concentration in 5 μl reaction volume) in aqueous assay buffer [50 mM Tris/HCl pH 7, 100 mM sodium chloride (NaCl), 50 mM potassium fluoride (KF), 0.005% Tween-20, 2 mM DTT, 0.1% bovine gamma globulin (BGG)] to the compounds in the assay plate. This was followed by a 10-minute incubation step at 22° C. for pre-equilibration of the putative complex between His-BCL-2 and the compounds. After that, 3 μl of a 1.67-fold concentrated solution (in assay buffer) consisting of Bad BH3-derived peptide (1 nM end concentration) and TR-FRET detection reagents [1.67 nM anti-His-Eu cryptate and 1.67 nM streptavidin-XL665 (both from Cisbio Bioassays, Codolet, France)], were added. For orientation: In TR-FRET formats the signal depends on donor and acceptor labels being close together.
Apoptosis regulator Bcl-2, sequence (P10415 whole entry): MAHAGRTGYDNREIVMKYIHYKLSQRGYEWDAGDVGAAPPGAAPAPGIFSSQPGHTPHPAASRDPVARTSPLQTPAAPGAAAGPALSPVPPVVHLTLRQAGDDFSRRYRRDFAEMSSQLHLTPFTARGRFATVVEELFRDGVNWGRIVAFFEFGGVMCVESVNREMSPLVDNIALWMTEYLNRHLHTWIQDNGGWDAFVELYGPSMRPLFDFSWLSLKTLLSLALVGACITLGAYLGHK

Assay [2] addresses Bcl-2-like protein 1 (Homo sapiens, UniProt Q07817). The description is as §1, with “Biological Assay: BCL-XL Assay: In” for “Biological Assay 2: BCL-2 Assay: In”, “2,5-fold concentrated His-BCL-XL solution (usually” for “2,5-fold concentrated His-BCL-2 solution (usually”, “(NaCl), […]” for “(NaCl), 50 mM potassium fluoride”, “complex between His-BCL-XL and the” for “complex between His-BCL-2 and the”.

Bcl-2-like protein 1, sequence (Q07817 whole entry): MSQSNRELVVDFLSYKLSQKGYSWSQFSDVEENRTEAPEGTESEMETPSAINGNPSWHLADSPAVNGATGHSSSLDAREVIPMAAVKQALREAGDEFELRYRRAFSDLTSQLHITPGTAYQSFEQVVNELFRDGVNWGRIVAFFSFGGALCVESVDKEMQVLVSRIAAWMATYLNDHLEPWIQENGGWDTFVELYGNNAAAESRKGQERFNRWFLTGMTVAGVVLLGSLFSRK

Turning to `CCc1c2c(nn1C)COCCCCn1c(C(=O)O)c(CCCOc3cccc4ccccc34)c3ccc(F)c-2c31`, the IC50 in assay [1] and in assay [2] was more than 20 µM in each case.

`CCc1nn(C)c2c1-c1c(F)ccc3c(CCCOc4cccc5cc(F)ccc45)c(C(=O)O)n(c13)CCCCOC2`: the IC50 in assay [1] and in assay [2] was more than 20 µM in each case.

As to `CCc1c2c(nn1C)COCCCCn1c(C(=O)O)c(CCCOc3ccc(F)c4ccccc34)c3ccc(F)c-2c31`, the IC50 in assay [1] and in assay [2] was more than 20 µM in each case.

As for `Cc1c2c(nn1C)COCCCCn1c(C(=O)O)c(CCCOc3cccc4ccccc34)c3ccc(F)c-2c31`, the IC50 in assay [1] and in assay [2] was more than 20 µM each time.

As for `Cc1c2c(nn1C)COCCCCn1c(C(=O)O)c(CCCOc3cccc4cc(F)ccc34)c3ccc(F)c-2c31`, the IC50 in assay [1] and in assay [2] was more than 20 µM throughout.

In the case of `Cc1c2c(nn1C)C[N+](C)(C)CCCCn1c(C(=O)O)c(CCCOc3cccc4ccccc34)c3ccc(F)c-2c31`, the IC50 in assay [1] and in assay [2] was more than 20 µM each time.
